Source: US20250171437A1 (Agios Pharmaceuticals,Inc., priority 2022, published 2025)

Biological target: T1, human PAH with the R408W mutation (A375 R408W cells) (Homo sapiens, UniProt P00439, R408W)
T1 construct: expressed in transfected cells
T1 sequence (P00439 1-452 R408W): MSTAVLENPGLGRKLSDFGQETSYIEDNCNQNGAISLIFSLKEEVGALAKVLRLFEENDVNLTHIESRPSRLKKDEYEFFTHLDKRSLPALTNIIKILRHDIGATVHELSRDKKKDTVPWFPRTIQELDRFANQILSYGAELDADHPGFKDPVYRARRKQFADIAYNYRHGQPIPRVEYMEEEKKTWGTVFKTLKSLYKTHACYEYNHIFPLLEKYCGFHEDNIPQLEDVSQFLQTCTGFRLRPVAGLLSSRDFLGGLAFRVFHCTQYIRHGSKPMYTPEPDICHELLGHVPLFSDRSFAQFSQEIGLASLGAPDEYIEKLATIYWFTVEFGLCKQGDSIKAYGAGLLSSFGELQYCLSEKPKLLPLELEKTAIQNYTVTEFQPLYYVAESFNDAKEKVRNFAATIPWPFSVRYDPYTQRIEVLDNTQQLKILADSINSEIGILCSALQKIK
Test: Cell Based Phenylalanine Flux Assay
Settings: A375 R408W cells; 24 hrs with compound, then 20 μM sepiapterin and 800 μM 13C9,15N-Phenylalanine for 4 hours; 13C-Tyrosine by LC-MS; average where tested multiple times
Summary of the method: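 LC-MS quantitation of 13C-tyrosine in media gave AC50 values. Stable A375 R408W PAH cells were preincubated 24 h with compound, then fed 800 μM labelled Phe plus 20 μM sepiapterin for 4 h. Dose curves were 10-point, tested in duplicate, averaged over repeat runs.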

Compound | AC50 [nM]
O=C(c1ocnc1C(F)F)N1CCc2[nH]cnc2[C@H]1c1nc2c(Br)cccc2o1 [Example 433, (S)-(4-(4-bromobenzo[d]oxazol-2-yl)-6,7-dihydro-1H-imidazo[4,5-c]pyridin-5(4H)-yl)(4-(difluoromethyl)oxazol-5-yl)methanone] | ≤ 500
O=C(c1ocnc1C(F)F)N1CCc2[nH]cnc2[C@@H]1c1nc2c(Br)cccc2o1 [Example 434, (R)-(4-(4-bromobenzo[d]oxazol-2-yl)-6,7-dihydro-1H-imidazo[4,5-c]pyridin-5(4H)-yl)(4-(difluoromethyl)oxazol-5-yl)methanone] | ≤ 500
O=C(c1ocnc1C(F)F)N1CCc2[nH]cnc2[C@H]1c1nc2c(Cl)cccc2o1 [Example 437, [(4S)-4-(4-chloro-1,3-benzoxazol-2-yl)-1,4,6,7-tetrahydroimidazo[4,5-c]pyridin-5-yl]-[4-(difluoromethyl)oxazol-5-yl]methanone] | ≤ 500
O=C(c1ocnc1C(F)F)N1CCc2[nH]cnc2[C@@H]1c1nc2c(Cl)cccc2o1 [Example 438, [(4R)-4-(4-chloro-1,3-benzoxazol-2-yl)-1,4,6,7-tetrahydroimidazo[4,5-c]pyridin-5-yl]-[4-(difluoromethyl)oxazol-5-yl]methanone] | ≤ 500
COc1ccc(-c2nnc(C(=O)N3CCc4[nH]cnc4[C@@H]3c3nc4cc(F)ccc4o3)o2)nc1 [Example 441, (R)-(4-(5-fluorobenzo[d]oxazol-2-yl)-6,7-dihydro-1H-imidazo[4,5-c]pyridin-5(4H)-yl)(5-(5-methoxypyridin-2-yl)-1,3,4-oxadiazol-2-yl)methanone] | 1000 to 5000
COc1ccc(-c2nnc(C(=O)N3CCc4[nH]cnc4[C@H]3c3nc4cc(F)ccc4o3)o2)nc1 [Example 442, (S)-(4-(5-fluorobenzo[d]oxazol-2-yl)-6,7-dihydro-1H-imidazo[4,5-c]pyridin-5(4H)-yl)(5-(5-methoxypyridin-2-yl)-1,3,4-oxadiazol-2-yl)methanone] | 500 to 1000
O=C(c1oc(-c2ccc(C(F)(F)F)cn2)nc1C(F)F)N1CCc2[nH]cnc2[C@@H]1c1nc2cc(F)ccc2o1 [Example 443, (R)-(4-(difluoromethyl)-2-(5-(trifluoromethyl)pyridin-2-yl)oxazol-5-yl)(4-(5-fluorobenzo[d]oxazol-2-yl)-6,7-dihydro-1H-imidazo[4,5-c]pyridin-5(4H)-yl)methanone] | 500 to 1000
O=C(c1oc(-c2ccc(C(F)(F)F)cn2)nc1C(F)F)N1CCc2[nH]cnc2[C@H]1c1nc2cc(F)ccc2o1 [Example 444, (S)-(4-(difluoromethyl)-2-(5-(trifluoromethyl)pyridin-2-yl)oxazol-5-yl)(4-(5-fluorobenzo[d]oxazol-2-yl)-6,7-dihydro-1H-imidazo[4,5-c]pyridin-5(4H)-yl)methanone] | ≤ 500
COc1ccc(-c2nc(C(F)F)c(C(=O)N3CCc4[nH]cnc4[C@H]3c3nc4cc(F)ccc4o3)o2)nc1 [Example 445, (S)-(4-(difluoromethyl)-2-(5-methoxypyridin-2-yl)oxazol-5-yl)(4-(5-fluorobenzo[d]oxazol-2-yl)-6,7-dihydro-1H-imidazo[4,5-c]pyridin-5(4H)-yl)methanone] | ≤ 500
COc1ccc(-c2nc(C(F)F)c(C(=O)N3CCc4[nH]cnc4[C@@H]3c3nc4cc(F)ccc4o3)o2)nc1 [Example 446, (R)-(4-(difluoromethyl)-2-(5-methoxypyridin-2-yl)oxazol-5-yl)(4-(5-fluorobenzo[d]oxazol-2-yl)-6,7-dihydro-1H-imidazo[4,5-c]pyridin-5(4H)-yl)methanone] | ≤ 500
Cc1cccc2oc([C@@H]3c4nc[nH]c4CCN3C(=O)c3nc(C(F)F)nn3C)nc12 [Example 447, (S)-(3-(difluoromethyl)-1-methyl-1H-1,2,4-triazol-5-yl)(4-(4-methylbenzo[d]oxazol-2-yl)-6,7-dihydro-1H-imidazo[4,5-c]pyridin-5(4H)-yl)methanone] | ≤ 500
Cc1cccc2oc([C@H]3c4nc[nH]c4CCN3C(=O)c3nc(C(F)F)nn3C)nc12 [Example 448, (R)-(3-(difluoromethyl)-1-methyl-1H-1,2,4-triazol-5-yl)(4-(4-methylbenzo[d]oxazol-2-yl)-6,7-dihydro-1H-imidazo[4,5-c]pyridin-5(4H)-yl)methanone] | 1000 to 5000
Cc1cccc2oc([C@@H]3c4nc[nH]c4CCN3C(=O)c3ccnn3C(F)F)nc12 [Example 449, (S)-(1-(difluoromethyl)-1H-pyrazol-5-yl)(4-(4-methylbenzo[d]oxazol-2-yl)-6,7-dihydro-1H-imidazo[4,5-c]pyridin-5(4H)-yl)methanone] | ≤ 500
Cc1cccc2oc([C@H]3c4nc[nH]c4CCN3C(=O)c3ccnn3C(F)F)nc12 [Example 450, (R)-(1-(difluoromethyl)-1H-pyrazol-5-yl)(4-(4-methylbenzo[d]oxazol-2-yl)-6,7-dihydro-1H-imidazo[4,5-c]pyridin-5(4H)-yl)methanone] | 1000 to 5000
O=C(c1cnn2cc(-c3ccccn3)ccc12)N1CCc2[nH]cnc2[C@H]1c1nc2cccc(F)c2o1 [Example 451, (S)-(4-(7-fluorobenzo[d]oxazol-2-yl)-6,7-dihydro-1H-imidazo[4,5-c]pyridin-5(4H)-yl)(6-(pyridin-2-yl)pyrazolo[1,5-a]pyridin-3-yl)methanone] | ≤ 500
O=C(c1cnn2cc(-c3ccccn3)ccc12)N1CCc2[nH]cnc2[C@@H]1c1nc2cccc(F)c2o1 [Example 452, (R)-(4-(7-fluorobenzo[d]oxazol-2-yl)-6,7-dihydro-1H-imidazo[4,5-c]pyridin-5(4H)-yl)(6-(pyridin-2-yl)pyrazolo[1,5-a]pyridin-3-yl)methanone] | 1000 to 5000
CC(C)(O)c1nc(C(F)F)c(C(=O)N2CCc3[nH]cnc3[C@H]2c2nc3cccc(C(F)(F)F)c3o2)o1 [Example 453, (S)-(4-(difluoromethyl)-2-(2-hydroxypropan-2-yl)oxazol-5-yl)(4-(7-(trifluoromethyl)benzo[d]oxazol-2-yl)-6,7-dihydro-1H-imidazo[4,5-c]pyridin-5(4H)-yl)methanone] | ≤ 500

Second part, the compound after the results:

AC50 [nM] | Compound
≤ 500 | CC(C)(O)c1nc(C(F)F)c(C(=O)N2CCc3[nH]cnc3[C@@H]2c2nc3c(Br)cccc3o2)o1 [Example 432, (R)-(4-(4-bromobenzo[d]oxazol-2-yl)-6,7-dihydro-1H-imidazo[4,5-c]pyridin-5(4H)-yl)(4-(difluoromethyl)-2-(2-hydroxypropan-2-yl)oxazol-5-yl)methanone]
≤ 500 | CC(C)(O)c1nc(C(F)F)c(C(=O)N2CCc3[nH]cnc3[C@H]2c2nc3c(Cl)cccc3o2)o1 [Example 435, [(4S)-4-(4-chloro-1,3-benzoxazol-2-yl)-1,4,6,7-tetrahydroimidazo[4,5-c]pyridin-5-yl]-[4-(difluoromethyl)-2-(1-hydroxy-1-methyl-ethyl)oxazol-5-yl]methanone]
500 to 1000 | CC(C)(O)c1nc(C(F)F)c(C(=O)N2CCc3[nH]cnc3[C@@H]2c2nc3c(Cl)cccc3o2)o1 [Example 436, [(4R)-4-(4-chloro-1,3-benzoxazol-2-yl)-1,4,6,7-tetrahydroimidazo[4,5-c]pyridin-5-yl]-[4-(difluoromethyl)-2-(1-hydroxy-1-methyl-ethyl)oxazol-5-yl]methanone]
≤ 500 | Cc1ccc2nc([C@@H]3c4nc[nH]c4CCN3C(=O)c3oc(C(C)(C)O)nc3Br)oc2c1 [Example 439, (S)-(4-bromo-2-(2-hydroxypropan-2-yl)oxazol-5-yl)(4-(6-methylbenzo[d]oxazol-2-yl)-6,7-dihydro-1H-imidazo[4,5-c]pyridin-5(4H)-yl)methanone]
1000 to 5000 | Cc1ccc2nc([C@H]3c4nc[nH]c4CCN3C(=O)c3oc(C(C)(C)O)nc3Br)oc2c1 [Example 440, (R)-(4-bromo-2-(2-hydroxypropan-2-yl)oxazol-5-yl)(4-(6-methylbenzo[d]oxazol-2-yl)-6,7-dihydro-1H-imidazo[4,5-c]pyridin-5(4H)-yl)methanone]
1000 to 5000 | CC(C)(O)c1nc(C(F)F)c(C(=O)N2CCc3[nH]cnc3[C@@H]2c2nc3cccc(C(F)(F)F)c3o2)o1 [Example 454, (R)-(4-(difluoromethyl)-2-(2-hydroxypropan-2-yl)oxazol-5-yl)(4-(7-(trifluoromethyl)benzo[d]oxazol-2-yl)-6,7-dihydro-1H-imidazo[4,5-c]pyridin-5(4H)-yl)methanone]
≤ 500 | COc1cccc2nc([C@@H]3c4nc[nH]c4CCN3C(=O)c3oc(C(C)(C)O)nc3C(F)F)oc12 [Example 455, (S)-(4-(difluoromethyl)-2-(2-hydroxypropan-2-yl)oxazol-5-yl)(4-(7-methoxybenzo[d]oxazol-2-yl)-6,7-dihydro-1H-imidazo[4,5-c]pyridin-5(4H)-yl)methanone]
1000 to 5000 | COc1cccc2nc([C@H]3c4nc[nH]c4CCN3C(=O)c3oc(C(C)(C)O)nc3C(F)F)oc12 [Example 456, (R)-(4-(difluoromethyl)-2-(2-hydroxypropan-2-yl)oxazol-5-yl)(4-(7-methoxybenzo[d]oxazol-2-yl)-6,7-dihydro-1H-imidazo[4,5-c]pyridin-5(4H)-yl)methanone]
